Measured values as given in patent US20170107203A1, “HETEROCYCLIC INHIBITORS OF THE SODIUM CHANNEL” (EPIRUS BIOPHARMACEUTICALS, INC., priority 2014, published 2017).

Target: T1, human Nav1.7 (Homo sapiens, UniProt Q15858)
T1 construct: expressed in transfected cells
Assay: Assessment of Nav1.7 activity on PatchXpress (voltage dependence / slow inactivation parameters)
Format: cell-based
Conditions: compound at 10 μM, relative to 0.2% DMSO vehicle control; for hNav1.7: Reduction in current at 20 mV (normalized data) Delta Ratio: before/after 30 sec conditioning pulse at 20 mV; for hNav1.7: Shift in voltage dependence of inactivation (mV) Delta Vhalf: PatchXpress
In short: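 HEK293F cells stably co-expressing hNav1.7 and β1 were recorded by automated patch clamp in TEA-based external solution (50 mM NaCl, pH 7.4) with CsF internal solution (pH 7.2). A variable conditioning prepulse inactivated channels, followed by a brief hyperpolarizing step and a depolarizing test pulse. Compounds at 10 μM were compared with 0.2% DMSO vehicle across four parameters.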

T1 sequence (Q15858 whole entry): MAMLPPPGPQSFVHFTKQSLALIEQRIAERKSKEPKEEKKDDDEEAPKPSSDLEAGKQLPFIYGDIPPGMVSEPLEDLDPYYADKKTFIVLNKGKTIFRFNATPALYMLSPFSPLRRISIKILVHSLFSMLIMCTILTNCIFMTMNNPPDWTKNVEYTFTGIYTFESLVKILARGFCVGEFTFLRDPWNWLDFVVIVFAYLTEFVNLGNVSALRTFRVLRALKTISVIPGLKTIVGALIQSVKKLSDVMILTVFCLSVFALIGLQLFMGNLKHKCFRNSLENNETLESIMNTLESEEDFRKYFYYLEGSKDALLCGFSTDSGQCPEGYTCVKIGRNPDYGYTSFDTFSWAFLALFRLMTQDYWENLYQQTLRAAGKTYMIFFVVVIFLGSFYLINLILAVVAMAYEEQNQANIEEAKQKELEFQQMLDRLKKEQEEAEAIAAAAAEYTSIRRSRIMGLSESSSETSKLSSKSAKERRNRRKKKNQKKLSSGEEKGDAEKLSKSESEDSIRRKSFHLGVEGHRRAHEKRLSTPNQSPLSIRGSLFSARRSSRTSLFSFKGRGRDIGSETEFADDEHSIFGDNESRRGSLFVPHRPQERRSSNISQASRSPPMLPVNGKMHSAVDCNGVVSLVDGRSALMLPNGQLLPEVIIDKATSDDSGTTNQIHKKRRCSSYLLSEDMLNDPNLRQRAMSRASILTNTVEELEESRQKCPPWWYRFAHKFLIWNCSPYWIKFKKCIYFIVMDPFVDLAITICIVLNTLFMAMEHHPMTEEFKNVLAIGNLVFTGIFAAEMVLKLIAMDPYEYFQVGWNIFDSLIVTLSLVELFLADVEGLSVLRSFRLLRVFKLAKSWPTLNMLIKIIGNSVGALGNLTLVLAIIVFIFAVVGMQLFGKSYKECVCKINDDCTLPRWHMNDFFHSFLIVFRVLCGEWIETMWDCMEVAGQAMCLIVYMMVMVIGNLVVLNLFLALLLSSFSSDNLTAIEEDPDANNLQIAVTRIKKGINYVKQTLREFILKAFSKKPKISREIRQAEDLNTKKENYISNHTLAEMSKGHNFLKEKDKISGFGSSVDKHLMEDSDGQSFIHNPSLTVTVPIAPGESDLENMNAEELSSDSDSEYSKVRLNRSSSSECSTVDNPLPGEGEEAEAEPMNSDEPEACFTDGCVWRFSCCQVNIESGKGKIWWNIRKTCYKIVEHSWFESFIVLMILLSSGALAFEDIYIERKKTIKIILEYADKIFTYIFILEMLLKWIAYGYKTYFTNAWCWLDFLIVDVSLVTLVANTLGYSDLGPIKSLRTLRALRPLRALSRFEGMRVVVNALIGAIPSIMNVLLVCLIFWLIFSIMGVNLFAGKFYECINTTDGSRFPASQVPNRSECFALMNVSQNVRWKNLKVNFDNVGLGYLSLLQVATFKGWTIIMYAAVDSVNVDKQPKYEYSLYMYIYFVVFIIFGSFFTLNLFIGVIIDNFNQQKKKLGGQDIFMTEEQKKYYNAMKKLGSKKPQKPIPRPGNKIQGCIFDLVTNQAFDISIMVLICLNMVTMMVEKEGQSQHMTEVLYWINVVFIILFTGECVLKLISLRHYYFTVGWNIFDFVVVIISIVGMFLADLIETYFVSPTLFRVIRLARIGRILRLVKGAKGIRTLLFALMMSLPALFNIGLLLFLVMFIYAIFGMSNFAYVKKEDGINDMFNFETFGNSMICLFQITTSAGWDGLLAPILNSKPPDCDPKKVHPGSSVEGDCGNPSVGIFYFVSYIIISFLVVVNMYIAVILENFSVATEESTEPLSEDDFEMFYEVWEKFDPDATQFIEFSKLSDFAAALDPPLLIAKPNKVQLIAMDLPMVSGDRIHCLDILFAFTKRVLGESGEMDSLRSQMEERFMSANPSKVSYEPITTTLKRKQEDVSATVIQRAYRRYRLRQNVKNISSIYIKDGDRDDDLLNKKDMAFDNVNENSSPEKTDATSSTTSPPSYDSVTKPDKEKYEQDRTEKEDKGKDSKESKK
T1 sequence (Q07699 19-218 partner): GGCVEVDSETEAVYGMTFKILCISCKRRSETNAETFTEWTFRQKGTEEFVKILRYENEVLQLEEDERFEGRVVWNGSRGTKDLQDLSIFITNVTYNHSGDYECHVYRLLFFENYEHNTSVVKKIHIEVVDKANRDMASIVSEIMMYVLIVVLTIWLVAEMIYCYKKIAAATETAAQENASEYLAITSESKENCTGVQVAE

SMILES	hNav1.7: Reduction in current at 20 mV (normalized data) Delta Ratio	hNav1.7: Voltage dependence of activation (mV) VDEP	hNav1.7: Voltage dependence of fast inactivation (mV) VDEP	hNav1.7: Shift in voltage dependence of inactivation (mV) Delta Vhalf
O=C(NC12CC3CC(CC(C3)C1)C2)[C@@H]1CCCN1 [Compound 45, (S)-N-(adamantan-1-yl)pyrrolidine-2-carboxamide]	−0.07	−5.10 mV	−7.00 mV	−6.20 mV
Cc1cccc(C)c1OCC(C)NC(=O)CN1CCNCC1=O (stereo not drawn) [Compound 35, N-(1-(2,6-dimethylphenoxy)propan-2-yl)-2-(2-oxopiperazin-1-yl)acetamide]	−0.06	−7.40 mV	−4.40 mV	−3.00 mV
Cc1cccc(C)c1OCC(C)NC(=O)C(C)(C)CC(=O)N1CCNCC1 (stereo not drawn) [Compound 33, N-(1-(2,6-dimethylphenoxy)propan-2-yl)-2,2-dimethyl-4-oxo-4-(piperazin-1-yl)butanamide]	−0.07	−8.70 mV	−6.00 mV	−5.30 mV
CC12CC3CC(C)(C1)CC(NC(=O)CCN)(C3)C2 [Compound 46, 3-amino-N-(3,5-dimethyladamantan-1-yl)propanamide]	−0.04	−7.90 mV	−4.50 mV	−1.70 mV
O=C1CNCCN1Cc1nc2cc(Br)ccc2[nH]1 [Compound 63, 1-((6-bromo-1H-benzo[d]imidazol-2-yl)methyl)piperazin-2-one]	−0.17	−8.1 mV	−6.4 mV	−9.7 mV

Results, then the compound that gave them:

hNav1.7: Reduction in current at 20 mV (normalized data) Delta Ratio	hNav1.7: Voltage dependence of activation (mV) VDEP	hNav1.7: Voltage dependence of fast inactivation (mV) VDEP	hNav1.7: Shift in voltage dependence of inactivation (mV) Delta Vhalf	SMILES
−0.19	−7.4 mV	−3.8 mV	−12.5 mV	CC(C)(CC(=O)N1CCNCC1)c1nc2cc(C(F)(F)F)cc(C(F)(F)F)c2[nH]1 [Compound 62, 3-(4,6-bis(trifluoromethyl)-1H-benzo[d]imidazol-2-yl)-3-methyl-1-(piperazin-1-yl)butan-1-one]
−0.07	−12.5 mV	−5.4 mV	−3.7 mV	CC(C)(C)OC(=O)N[C@H](Cc1cccc(C(F)(F)F)c1)C(=O)NCc1nc2c(C(F)(F)F)cc(C(F)(F)F)cc2[nH]1 [Compound 73, tert-butyl (R)-(1-(((4,6-bis(trifluoromethyl)-1H-benzo[d]imidazol-2-yl)methyl)amino)-1-oxo-3-(3-(trifluoromethyl)phenyl)propan-2-yl)carbamate]
−0.08	−8.00 mV	−3.50 mV	−10.00 mV	CC[C@@H](C)[C@@H](N)C(=O)NCCOc1cc(F)cc(C(F)(F)F)c1 [Compound 19, (2R,3R)-2-amino-N-(2-(3-fluoro-5-(trifluoromethyl)phenoxy)ethyl)-3-methylpentanamide]
−0.26	−4.60 mV	−6.30 mV	−25.20 mV	CC(C)CC(N)C(=O)N[C@H](C)COc1cc(C(F)(F)F)cc(C(F)(F)F)c1 (stereo partly drawn) [Compound 5, 2-amino-N-((R)-1-(3,5-bis(trifluoromethyl)phenoxy)propan-2-yl)-4-methylpentanamide]
